How the values were obtained:
[1] = system: HT-29 colon cancer cell line; experiment: Notch target gene expression by qRT-PCR after treatment with gamma-secretase inhibitor; type: cell-based, human
Method: (§1) Cells were seeded into 6-well plates in 2 mL of media. Replicates wells of cells treated with 1 μM, 3 μM, and 6 μM Gamma Secretase Inhibitor (GSI; Sigma L-685,458) or DMSO (Sigma D2650) (vehicle control) immediately after seeding. Cells were incubated at 37° C. 5% CO2 for 20 hours after treatment, then collected, rinsed with PBS (Invitrogen 14040-133), and cell pellets were frozen on dry ice and stored at −80° C. Subsequently, RNA was prepared by hand using the Qiagen RNeasy™ miniprep columns (Qiagen GR8RNA) and qRT-PCR performed to analyze Notch target gene expression according to standard protocol (Qiagen Quantitect SYBR GREEN RT-PCR kit 204245). Quantitative RT-PCR was run on Applied Biosystems 7900HT Sequence Detection System. Results were analyzed using the comparative Ct method. Beta Actin was used as the housekeeping gene and Stratagene Universal Human Reference RNA (Stratagene Cat. No. 740000) was used as an external reference sample to determine the level of expression of the Notch target genes Hes1, Hes5, Hes6, Hes7, Hey1, Hey2, HeyL, and Helt.

[2] = system: LS-1034 colon cancer cell line; experiment: as above; type: cell-based, human
Method: as §1

[3] = system: mouse tumors with enhanced expression of Notch1 caused by Mo-MuLV integration near the Notch1 locus; experiment: Cell viability assay on disaggregated retroviral-induced tumors treated with GSI; type: cell-based
Method: To perform the analyses on the retroviral-induced tumors, tumor-bearing animals were euthanized, tumors were collected and 0.2 g pieces were disaggregated using 4 mg/ml collagenase in RPMI media for 2 hours at 37° C. Cells were further disaggregated by passage through an 18 G needle 5-10 times. Single cells in suspension were aspirated in the supernatant for further analysis.
(§2) For cell viability assays, single cells were re-seeded at 100,000 cell per well in 12-well plates in RPMI media supplemented with 10% FBS, 1% PenStrep, and 0.01 μM Beta estradiol. Cells were then treated for 48 hours with 1, 3 or 10 μM GSI (Sigma L-685,458) or vehicle control. Cell viability and apoptosis were assessed using Guava PCA-96 Viacount Flex reagent (Cat. No. 4700-0060) and measured using a Guava PCA-96 instrument, according to manufacturer's protocol. To measure mRNA expression levels, fresh tumor samples were collected, RNA was prepared using standard protocols, and microarray gene expression profile analysis was performed using Agilent cDNA microarray chips according to manufacturer's recommended protocols. Relative expression of HeyL and other genes was calculated by comparison to a universal mouse reference RNA sample from Stratagene (Universal Mouse Reference RNA Cat. No. 740100). […]

[4] = system: mouse tumors that did not exhibit elevated Notch1 expression; experiment: as above; type: cell-based; details: mouse tumors without elevated Notch1 expression
Method: as §2, with “To perform the analyses on the retroviral-induced tumors, tumor-bearing animals were euthanized, tumors were collected and 0.2 g pieces were disaggregated using 4 mg/ml collagenase in RPMI media for 2 hours at 37° C. Cells were further disaggregated by passage through an 18 G needle 5-10 times. Single cells in suspension were aspirated in the supernatant for further analysis. For” for “For”

For `CC(C)C[C@H](NC(=O)[C@H](Cc1ccccc1)C[C@@H](O)[C@H](Cc1ccccc1)NC(=O)OC(C)(C)C)C(=O)N[C@@H](Cc1ccccc1)C(N)=O` [GSI], the “expression of Notch target genes” value [1] was “decreases expression of Notch target genes”, the “expression of Notch target genes” value [2] was “decreases expression of Notch target genes” and the “sensitivity of tumor growth to inhibition by GSI” value [3] was “sensitivity to inhibition”. For the same molecule, the “sensitivity of tumor growth to inhibition by GSI” value [4] was “not sensitive”.

From US7544476B1, “Identifying cancers sensitive to treatment with inhibitors of notch signaling” (AVEO Pharmaceuticals, Inc., priority 2008, dated 2009)
